Results: ChEMBL document CHEMBL3112428, “Biological evaluation of diazene derivatives as anti-tubercular compounds” (Eur J Med Chem, 2014)
In brackets after ≈: the same amount, converted by molar mass. Activity calls are given as the source filed them. The calls are words filed in the database; no cut-off is given here.

Experiments:
[1] = tested on: Mycobacterium tuberculosis; assay: Antituberculosis activity against Mycobacterium tuberculosis H37Rv ATCC 27294 assessed as inhibition of bacterial replication after 6 days by luminometry analysis; type: functional, organism-based; conditions: H37Rv ATCC 27294, 144 h
Mycobacterium ulcerans = assay: Antituberculosis activity against Mycobacterium ulcerans 1615 expressing lux gene assessed as inhibition of bacterial replication after 6 days by luminometry analysis; type: functional; conditions: Mycobacterium ulcerans, 1615, 144 h
[2] = Selectivity index, ratio of IC50 for mouse J774A1 cells to IC50 for Mycobacterium tuberculosis H37Rv expressing pSMT1; type: toxicity, cell-based, J774.A1; conditions: read-out: Ratio IC50
[3] = Genotoxicity in mouse J774A1 cells assessed as ratio of genomic DNA present in tail and head at 0.1 to 10 ug/ml after 24 hrs by comet assay; type: toxicity, cell-based; conditions: j774.a1, 24 h
[4] = Cytotoxicity against mouse J774A1 cells after 24 hrs by neutral red uptake assay; type: cell-based; conditions: J774.A1, 24 h
[5] = tested on: Mycobacterium tuberculosis; assay: Antituberculosis activity against Mycobacterium tuberculosis H37Rv expressing lux gene assessed as inhibition of bacterial replication after 6 days by luminometry analysis; type: functional, organism-based; conditions: 144 h
[6] = tested on: Mycobacterium tuberculosis; assay: Antituberculosis activity against Mycobacterium tuberculosis H37Rv expressing lux gene infected in mouse J774A1 cells assessed as inhibition of bacterial replication at 1.56 ug/ml after 4 days by luminometry analysis; type: functional; conditions: J774.A1, 96 h
[7] = tested on: Mycobacterium avium subsp. paratuberculosis; assay: Antituberculosis activity against Mycobacterium avium ssp. paratuberculosis ATCC 19698 expressing lux gene assessed as inhibition of bacterial replication after 6 days by luminometry analysis; type: functional, organism-based; conditions: ATCC 19698, 144 h
[8] = tested on: Mycobacterium tuberculosis; assay: Antituberculosis activity against Mycobacterium tuberculosis H37Rv expressing lux gene infected in mouse J774A1 cells assessed as inhibition of bacterial replication at 3.13 ug/ml after 4 days by luminometry analysis; type: functional; conditions: J774.A1, 96 h
[9] = tested on: Mycobacterium tuberculosis; assay: Antituberculosis activity against Mycobacterium tuberculosis H37Rv ATCC 27294 assessed as inhibition of bacterial replication at < 10 ug/ml after 6 days by luminometry analysis relative to control; type: functional
[10] = Antituberculosis activity against Mycobacterium avium ssp. avium ATCC 15769 expressing lux gene assessed as inhibition of bacterial replication after 6 days by luminometry analysis; type: functional, Mycobacterium avium subsp. avium
[11] = tested on: Mycobacterium tuberculosis; assay: Antituberculosis activity against Mycobacterium tuberculosis H37Rv expressing lux gene infected in mouse J774A1 cells assessed as inhibition of bacterial replication at 12.5 ug/ml after 4 days by luminometry analysis; type: functional; conditions: J774.A1, 96 h
[12] = tested on: Mycobacterium tuberculosis; assay: Antituberculosis activity against Mycobacterium tuberculosis H37Rv expressing lux gene infected in mouse J774A1 cells assessed as inhibition of bacterial replication at 0.78 to 6.25 ug/ml after 4 days by luminometry analysis; type: functional, organism-based; conditions: J774.A1

Structure (SMILES) | IC50 [1] | IC90 [1] | IC99 [1] | further results
O=C(/N=N/c1nccc(C(F)(F)F)n1)Nc1ccccc1 | > 50 µg/mL | > 50 µg/mL | > 50 µg/mL | 
O=C(/N=N/c1ccc(C(F)(F)F)cc1)Nc1ccccc1 | 0.24 µg/mL (≈ 0.818 µM) | 5.29 µg/mL (≈ 18 µM) | 6.24 µg/mL | IC50 (Mycobacterium ulcerans): 3.78 µg/mL (≈ 12.9 µM); selectivity ratio [2]: 30.2; Activity [3]: Non-toxic; IC50 [4]: 7.41 µg/mL (≈ 25.3 µM); IC50 [5]: 0.24 µg/mL (≈ 0.818 µM); inhibition at 1.56 µg/mL [6]: 31.7%; IC50 [7]: 0.98 µg/mL (≈ 3.34 µM); inhibition at 3.13 µg/mL [8]: 74.4%; fold change (FC) [9]: 10; IC50 [10]: 1.03 µg/mL (≈ 3.51 µM)
COc1ccc(/N=N/C(=O)Nc2ccccc2)cc1 | 12.1 µg/mL (≈ 47.3 µM) | 38.4 µg/mL (≈ 150 µM) | 42.2 µg/mL | 
O=C(/N=N/c1c(F)c(F)c(F)c(F)c1F)Nc1ccccc1 | 24.3 µg/mL (≈ 77.1 µM) | 45.3 µg/mL (≈ 144 µM) | > 50 µg/mL | 
O=C(/N=N/C(=O)Nc1ccc(F)cc1F)NCc1ccncc1 | 33.3 µg/mL (≈ 104 µM) | > 50 µg/mL | > 50 µg/mL | 
CCOC(=O)/N=N/C(=O)Nc1ccccc1 | 17.2 µg/mL (≈ 77.8 µM) | 33.8 µg/mL (≈ 153 µM) | > 50 µg/mL | 
O=C(/N=N/c1ccc(Cl)cc1)Nc1ccccc1 | 15.6 µg/mL (≈ 59.9 µM) | 41.4 µg/mL (≈ 159 µM) | 49.3 µg/mL | 
O=C(/N=N/c1ccc(F)cc1)Nc1ccccc1 | 45.2 µg/mL (≈ 186 µM) | 49.2 µg/mL (≈ 202 µM) | > 50 µg/mL | 
CCOC(=O)/N=N/C(=O)Nc1ccc(C)cc1 | 2.72 µg/mL (≈ 11.6 µM) | 4.07 µg/mL (≈ 17.3 µM) | 7.97 µg/mL | IC50 (Mycobacterium ulcerans): 7.25 µg/mL (≈ 30.8 µM); selectivity ratio [2]: 7.63; inhibition at 12.5 µg/mL [11]: 40.3%; Activity [3]: Non-toxic; IC50 [4]: 20.8 µg/mL (≈ 88.2 µM); IC50 [5]: 2.72 µg/mL (≈ 11.6 µM); IC50 [7]: 4.89 µg/mL (≈ 20.8 µM); fold change (FC) [9]: 10; IC50 [10]: 3.14 µg/mL (≈ 13.3 µM)
O=C(/N=N/C(=O)Nc1ccc(F)cc1)NCc1ccncc1 | > 50 µg/mL | > 50 µg/mL | > 50 µg/mL | 
O=C(/N=N/C(=O)Nc1ccc(F)cc1F)NCc1cccnc1 | 38.6 µg/mL (≈ 121 µM) | > 50 µg/mL | > 50 µg/mL | 
O=C(/N=N/C(=O)Nc1ccc(F)cc1)NCc1cccnc1 | > 50 µg/mL | > 50 µg/mL | > 50 µg/mL | 
O=C(/N=N/c1ccccn1)Nc1ccccc1 | 27.1 µg/mL (≈ 120 µM) | 46.9 µg/mL (≈ 207 µM) | > 50 µg/mL | 
COC(=O)/N=N/C(=O)Nc1ccc(OC)cc1 | 14.3 µg/mL (≈ 60.4 µM) | 32.4 µg/mL (≈ 137 µM) | > 50 µg/mL | 
O=C(/N=N/c1ccc([N+](=O)[O-])cc1)Nc1ccccc1 | 2.75 µg/mL (≈ 10.2 µM) | 6.23 µg/mL (≈ 23.1 µM) | 16.5 µg/mL | inhibition [12]: inactive; IC50 (Mycobacterium ulcerans): 5.67 µg/mL (≈ 21 µM); selectivity ratio [2]: 5.23; Activity [3]: Non-toxic; IC50 [4]: 14.4 µg/mL (≈ 53.2 µM); IC50 [5]: 2.75 µg/mL (≈ 10.2 µM); IC50 [7]: 3.56 µg/mL (≈ 13.2 µM); fold change (FC) [9]: 10; IC50 [10]: 2.98 µg/mL (≈ 11 µM)
NNC(=O)c1ccncc1 [ISONIAZID] | 0.04 µg/mL (≈ 0.292 µM) | 0.11 µg/mL (≈ 0.802 µM) | 0.13 µg/mL | 
